Experiments:
[1] = species: Rattus norvegicus; experiment: Tested to induce analgesia in hot plate test, expressed as percent of latency time (p<0.05); assay type: functional
[2] = species: Rattus norvegicus; experiment: Tested for percent immobility time in the ring test, expressed as % of control (p<0.01); assay type: functional
[3] = tested on: Rattus norvegicus; experiment: Tested for decrease in rectal temperature 5 min after ip injection; assay type: functional
[4] = tested on: Rattus norvegicus; experiment: Tested for decrease in rectal temperature 10 min after ip injection; assay type: functional
[5] = species: Rattus norvegicus; experiment: Tested to induce analgesia in hot plate test, expressed as percent of latency time; assay type: functional
[6] = target: Cannabinoid receptor 1 (Rattus norvegicus, UniProt P20272); experiment: Concentration required to displace 0.4 nM [3H]SR-141,716A from CB1 receptor in rat brain preparations in the presence of 0.1 mM phenylmethyl sulfonyl fluoride; assay type: tissue-based
Chain of Cannabinoid receptor 1 (P20272 whole entry): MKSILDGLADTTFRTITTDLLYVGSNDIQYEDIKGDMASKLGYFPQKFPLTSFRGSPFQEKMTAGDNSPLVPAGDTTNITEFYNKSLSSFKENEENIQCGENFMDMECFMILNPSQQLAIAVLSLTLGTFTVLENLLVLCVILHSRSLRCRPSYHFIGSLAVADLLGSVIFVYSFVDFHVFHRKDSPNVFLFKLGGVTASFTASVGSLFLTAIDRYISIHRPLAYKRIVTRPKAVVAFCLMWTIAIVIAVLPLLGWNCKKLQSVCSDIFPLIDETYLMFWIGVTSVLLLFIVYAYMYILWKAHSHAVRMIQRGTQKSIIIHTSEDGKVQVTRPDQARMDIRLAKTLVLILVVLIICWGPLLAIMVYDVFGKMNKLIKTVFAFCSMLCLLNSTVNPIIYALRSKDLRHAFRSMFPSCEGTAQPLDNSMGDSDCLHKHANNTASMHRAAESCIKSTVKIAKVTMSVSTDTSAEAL

| SMILES | Latency time [1] [%] | Immobility time [2] [%] | Rectal temperature [3] [°C] | Rectal temperature [4] [°C] | Latency time [5] [%] | Ki [6] [nM] |
| --- | --- | --- | --- | --- | --- | --- |
| CC/C=C\C/C=C\C/C=C\C/C=C\C/C=C\CCCC(=O)NCCc1ccc(O)c(O)c1 | 135 | 658 | 1.64 |  |  |  |
| CCCCC/C=C\C/C=C\C/C=C\CCCCCCC(=O)NCCc1ccc(O)c(O)c1 |  | 693 | 0.43 | 0.7 | 129 |  |
| CC/C=C\C/C=C\C/C=C\C/C=C\CCCCC(=O)NCCc1ccc(O)c(O)c1 |  | 570 | 1.45 | 1.67 | 120 |  |
| CC/C=C\C/C=C\C/C=C\C/C=C\C/C=C\C/C=C\CCC(=O)NCCc1ccc(O)c(O)c1 | 296 | 674 | 0.9 | 1.1 |  |  |
| CC/C=C\C/C=C\C/C=C\C/C=C\C/C=C\CCCCCC(=O)NCCc1ccc(O)c(O)c1 | 144 | 610 | 1.35 | 1.82 |  | 1370 |
| CCCCC/C=C\C/C=C\CC/C=C\CCCC(=O)NCCc1ccc(O)c(O)c1 |  | 528 | 0.5 | 0.4 | 162 | 1720 |
| CCCCC/C=C\C/C=C\C/C=C\C/C=C\CCCC(=O)NCCO [ANANDAMIDE] |  | 750 | 1.93 | 2.53 | 165 |  |
| CCCCC/C=C\C/C=C\C/C=C\C/C=C\CCCC(=O)NCCc1ccc(O)c(O)c1 [ARACHIDONOYL DOPAMINE] | 222 | 500 | 1.35 | 1.27 |  | 380 |

— ChEMBL document CHEMBL1134181, “Synthesis and biological evaluation of novel amides of polyunsaturated fatty acids with dopamine” (Bioorg Med Chem Lett, 2001)
